Measured values taken from ChEMBL document CHEMBL5143517, “Discovery and radiosensitization research of ursolic acid derivatives as SENP1 inhibitors” (Eur J Med Chem, 2022).

Test: Cytotoxicity against human HeLa cells assessed as inhibition of cell growth incubated for 72 hrs by CCK-8 assay
Type: toxicity, cell-based

| SMILES | IC50 at 72 h [µM] |
| --- | --- |
| C[C@H]1[C@H](C)CC[C@]2(C(=O)OCCCCN3CCOCC3)CC[C@]3(C)C(=CC[C@@H]4[C@@]5(C)CC[C@H](O)C(C)(C)[C@@H]5CC[C@]43C)[C@H]12 | > 20 |
| C[C@H]1[C@H](C)CC[C@]2(C(N)=O)CC[C@]3(C)C(=CC[C@@H]4[C@@]5(C)CC[C@H](O)C(C)(C)[C@@H]5CC[C@]43C)[C@H]12 | > 20 |
| C[C@H]1[C@H](C)CC[C@]2(C(=O)OCCN3CCOCC3)CC[C@]3(C)C(=CC[C@@H]4[C@@]5(C)CC[C@H](O)C(C)(C)[C@@H]5CC[C@]43C)[C@H]12 | > 20 |
| C[C@H]1[C@H](C)CC[C@]2(C(=O)OCCO)CC[C@]3(C)C(=CC[C@@H]4[C@@]5(C)CC[C@H](O)C(C)(C)[C@@H]5CC[C@]43C)[C@H]12 | > 20 |
| CNC(=O)CN(C)C(=O)[C@]12CC[C@@H](C)[C@H](C)[C@H]1C1=CC[C@@H]3[C@@]4(C)CC[C@H](OC(C)=O)C(C)(C)[C@@H]4CC[C@@]3(C)[C@]1(C)CC2 | > 20 |
| C[C@H]1[C@H](C)CC[C@]2(C(=O)NCCC(=O)O)CC[C@]3(C)C(=CC[C@@H]4[C@@]5(C)CC[C@H](O)C(C)(C)[C@@H]5CC[C@]43C)[C@H]12 | > 20 |
| CC(=O)O[C@H]1CC[C@]2(C)[C@H]3CC=C4[C@@H]5[C@@H](C)[C@H](C)CC[C@]5(C(=O)NCC(N)=O)CC[C@@]4(C)[C@]3(C)CC[C@H]2C1(C)C | > 20 |
| CNC(=O)COC(=O)[C@]12CC[C@@H](C)[C@H](C)[C@H]1C1=CC[C@@H]3[C@@]4(C)CC[C@H](O)C(C)(C)[C@@H]4CC[C@@]3(C)[C@]1(C)CC2 | > 20 |
| COC(=O)[C@]12CC[C@@H](C)[C@H](C)[C@H]1C1=CC[C@@H]3[C@@]4(C)CC[C@H](OC=O)C(C)(C)[C@@H]4CC[C@@]3(C)[C@]1(C)CC2 | > 20 |
| C[C@H]1[C@H](C)CC[C@]2(C(=O)OCCN3CCCCC3)CC[C@]3(C)C(=CC[C@@H]4[C@@]5(C)CC[C@H](O)C(C)(C)[C@@H]5CC[C@]43C)[C@H]12 | > 20 |
| C[C@H]1[C@H](C)CC[C@]2(C(=O)OCC(=O)N(C)CCO)CC[C@]3(C)C(=CC[C@@H]4[C@@]5(C)CC[C@H](O)C(C)(C)[C@@H]5CC[C@]43C)[C@H]12 | > 20 |
| C[C@H]1[C@H](C)CC[C@]2(C(=O)OCC(=O)OC(C)(C)C)CC[C@]3(C)C(=CC[C@@H]4[C@@]5(C)CC[C@H](O)C(C)(C)[C@@H]5CC[C@]43C)[C@H]12 | > 20 |
| CNC(=O)CCNC(=O)[C@]12CC[C@@H](C)[C@H](C)[C@H]1C1=CC[C@@H]3[C@@]4(C)CC[C@H](O)C(C)(C)[C@@H]4CC[C@@]3(C)[C@]1(C)CC2 | > 20 |
| CC(=O)O[C@H]1CC[C@]2(C)[C@H]3CC=C4[C@@H]5[C@@H](C)[C@H](C)CC[C@]5(C(=O)N[C@@H](C)c5ccccc5)CC[C@@]4(C)[C@]3(C)CC[C@H]2C1(C)C | > 20 |
| C[C@H]1[C@H](C)CC[C@]2(C(=O)OCCN3CCN(c4cccc(C(F)(F)F)c4)CC3)CC[C@]3(C)C(=CC[C@@H]4[C@@]5(C)CC[C@H](O)C(C)(C)[C@@H]5CC[C@]43C)[C@H]12 | > 20 |
| C[C@H]1[C@H](C)CC[C@]2(C(=O)OCCCCBr)CC[C@]3(C)C(=CC[C@@H]4[C@@]5(C)CC[C@H](O)C(C)(C)[C@@H]5CC[C@]43C)[C@H]12 [BROMOBUTYL-3BETA-HYDROXY-URS-12-EN-28-OATE] | > 20 |
| C[C@H]1[C@H](C)CC[C@]2(C(=O)N[C@@H](C)c3ccccc3)CC[C@]3(C)C(=CC[C@@H]4[C@@]5(C)CC[C@H](O)C(C)(C)[C@@H]5CC[C@]43C)[C@H]12 | > 20 |
| C[C@H]1[C@H](C)CC[C@]2(C(=O)NCC(=O)NCCO)CC[C@]3(C)C(=CC[C@@H]4[C@@]5(C)CC[C@H](O)C(C)(C)[C@@H]5CC[C@]43C)[C@H]12 | > 20 |
| COC(=O)[C@]12CC[C@@H](C)[C@H](C)[C@H]1C1=CC[C@@H]3[C@@]4(C)CC[C@H](OC(C)=O)C(C)(C)[C@@H]4CC[C@@]3(C)[C@]1(C)CC2 | > 20 |
| COC(=O)CN(C)C(=O)[C@]12CC[C@@H](C)[C@H](C)[C@H]1C1=CC[C@@H]3[C@@]4(C)CC[C@H](OC(C)=O)C(C)(C)[C@@H]4CC[C@@]3(C)[C@]1(C)CC2 | > 20 |
| COC(=O)CCNC(=O)[C@]12CC[C@@H](C)[C@H](C)[C@H]1C1=CC[C@@H]3[C@@]4(C)CC[C@H](OC(C)=O)C(C)(C)[C@@H]4CC[C@@]3(C)[C@]1(C)CC2 | > 20 |
| CNC(=O)CNC(=O)[C@]12CC[C@@H](C)[C@H](C)[C@H]1C1=CC[C@@H]3[C@@]4(C)CC[C@H](OC(C)=O)C(C)(C)[C@@H]4CC[C@@]3(C)[C@]1(C)CC2 | > 20 |
| CNC(=O)CN(C)C(=O)[C@]12CC[C@@H](C)[C@H](C)[C@H]1C1=CC[C@@H]3[C@@]4(C)CC[C@H](O)C(C)(C)[C@@H]4CC[C@@]3(C)[C@]1(C)CC2 | > 20 |
| COC(=O)[C@@H]1CCCN1C(=O)[C@]12CC[C@@H](C)[C@H](C)[C@H]1C1=CC[C@@H]3[C@@]4(C)CC[C@H](OC(C)=O)C(C)(C)[C@@H]4CC[C@@]3(C)[C@]1(C)CC2 | > 20 |

| SMILES | IC50 at 72 h [µM] |
| --- | --- |
| C[C@H]1[C@H](C)CC[C@]2(C(=O)OCC(=O)NCCO)CC[C@]3(C)C(=CC[C@@H]4[C@@]5(C)CC[C@H](O)C(C)(C)[C@@H]5CC[C@]43C)[C@H]12 | > 20 |
| CC(=O)O[C@H]1CC[C@]2(C)[C@H]3CC=C4[C@@H]5[C@@H](C)[C@H](C)CC[C@]5(C(=O)NCC(=O)O)CC[C@@]4(C)[C@]3(C)CC[C@H]2C1(C)C | > 20 |
| C[C@H]1[C@H](C)CC[C@]2(C(=O)NCC(=O)N(C)CCO)CC[C@]3(C)C(=CC[C@@H]4[C@@]5(C)CC[C@H](O)C(C)(C)[C@@H]5CC[C@]43C)[C@H]12 | > 20 |
| C[C@H]1[C@H](C)CC[C@]2(C(=O)NCC(=O)N(CCO)CCO)CC[C@]3(C)C(=CC[C@@H]4[C@@]5(C)CC[C@H](O)C(C)(C)[C@@H]5CC[C@]43C)[C@H]12 | > 20 |
| C[C@H]1[C@H](C)CC[C@]2(C(=O)OCCN3CCNCC3)CC[C@]3(C)C(=CC[C@@H]4[C@@]5(C)CC[C@H](O)C(C)(C)[C@@H]5CC[C@]43C)[C@H]12 | > 20 |
| C[C@H]1[C@H](C)CC[C@]2(C(=O)N(C)CC(=O)O)CC[C@]3(C)C(=CC[C@@H]4[C@@]5(C)CC[C@H](O)C(C)(C)[C@@H]5CC[C@]43C)[C@H]12 | > 20 |
| C[C@H]1[C@H](C)CC[C@]2(C(=O)NCC(=O)O)CC[C@]3(C)C(=CC[C@@H]4[C@@]5(C)CC[C@H](O)C(C)(C)[C@@H]5CC[C@]43C)[C@H]12 | > 20 |
| C[C@H]1[C@H](C)CC[C@]2(C(=O)NCC(N)=O)CC[C@]3(C)C(=CC[C@@H]4[C@@]5(C)CC[C@H](O)C(C)(C)[C@@H]5CC[C@]43C)[C@H]12 | > 20 |
| COC(=O)[C@@H]1CCCN1CCOC(=O)[C@]12CC[C@@H](C)[C@H](C)[C@H]1C1=CC[C@@H]3[C@@]4(C)CC[C@H](O)C(C)(C)[C@@H]4CC[C@@]3(C)[C@]1(C)CC2 | > 20 |
| C[C@H]1[C@H](C)CC[C@]2(C(=O)OCc3ccccc3)CC[C@]3(C)C(=CC[C@@H]4[C@@]5(C)CC[C@H](O)C(C)(C)[C@@H]5CC[C@]43C)[C@H]12 | > 20 |
| C[C@H]1[C@H](C)CC[C@]2(C(=O)OCC3CCN(C(=O)OC(C)(C)C)CC3)CC[C@]3(C)C(=CC[C@@H]4[C@@]5(C)CC[C@H](O)C(C)(C)[C@@H]5CC[C@]43C)[C@H]12 | > 20 |
| C[C@H]1[C@H](C)CC[C@]2(C(=O)OCCBr)CC[C@]3(C)C(=CC[C@@H]4[C@@]5(C)CC[C@H](O)C(C)(C)[C@@H]5CC[C@]43C)[C@H]12 | > 20 |
| C[C@H]1[C@H](C)CC[C@]2(C(=O)OCCNC(=O)OC(C)(C)C)CC[C@]3(C)C(=CC[C@@H]4[C@@]5(C)CC[C@H](O)C(C)(C)[C@@H]5CC[C@]43C)[C@H]12 | > 20 |
| COC(=O)[C@]12CC[C@@H](C)[C@H](C)[C@H]1C1=CC[C@@H]3[C@@]4(C)CC[C@H](O)C(C)(C)[C@@H]4CC[C@@]3(C)[C@]1(C)CC2 [METHYL URSOLATE] | > 20 |
| C[C@H]1[C@H](C)CC[C@]2(C(=O)NCCBr)CC[C@]3(C)C(=CC[C@@H]4[C@@]5(C)CC[C@H](O)C(C)(C)[C@@H]5CC[C@]43C)[C@H]12 | > 20 |
| CC(=O)O[C@H]1CC[C@]2(C)[C@H]3CC=C4[C@@H]5[C@@H](C)[C@H](C)CC[C@]5(C(=O)O)CC[C@@]4(C)[C@]3(C)CC[C@H]2C1(C)C [O-ACETYLURSOLIC ACID] | > 20 |
| CC(=O)O[C@H]1CC[C@]2(C)[C@H]3CC=C4[C@@H]5[C@@H](C)[C@H](C)CC[C@]5(C(N)=O)CC[C@@]4(C)[C@]3(C)CC[C@H]2C1(C)C | > 20 |
| C[C@H]1[C@H](C)CC[C@]2(C(=O)OCCCCN3CCNCC3)CC[C@]3(C)C(=CC[C@@H]4[C@@]5(C)CC[C@H](O)C(C)(C)[C@@H]5CC[C@]43C)[C@H]12 | 5.7 |
| C[C@H]1[C@H](C)CC[C@]2(C(=O)OCCN3CCNC(=O)C3)CC[C@]3(C)C(=CC[C@@H]4[C@@]5(C)CC[C@H](O)C(C)(C)[C@@H]5CC[C@]43C)[C@H]12 | > 20 |
| CC(=O)O[C@H]1CC[C@]2(C)[C@H]3CC=C4[C@@H]5[C@@H](C)[C@H](C)CC[C@]5(C(=O)NCCBr)CC[C@@]4(C)[C@]3(C)CC[C@H]2C1(C)C | > 20 |
| C[C@H]1[C@H](C)CC[C@]2(C(=O)OCCN3CCN(C)CC3)CC[C@]3(C)C(=CC[C@@H]4[C@@]5(C)CC[C@H](O)C(C)(C)[C@@H]5CC[C@]43C)[C@H]12 | > 20 |
| CNC(=O)CCNC(=O)[C@]12CC[C@@H](C)[C@H](C)[C@H]1C1=CC[C@@H]3[C@@]4(C)CC[C@H](OC(C)=O)C(C)(C)[C@@H]4CC[C@@]3(C)[C@]1(C)CC2 | > 20 |
| COC(=O)CNC(=O)[C@]12CC[C@@H](C)[C@H](C)[C@H]1C1=CC[C@@H]3[C@@]4(C)CC[C@H](OC(C)=O)C(C)(C)[C@@H]4CC[C@@]3(C)[C@]1(C)CC2 | > 20 |
